# Test results taken from PubChem BioAssay AID2060512 (Molecular Pharmacology Branch, DTP, NCI, 2025).
# Tested on: 186277-243-T-J2-PDC complex spheroid viability
# Assay: Anticancer human tumor 186277-243-T-J2-PDC patient-derived colon adenocarcinoma cell line growth inhibition [GQUAD]
# Settings: for IC50: curve of first compound; for viability, T/C: stronger effect = lower value
# Summary of the method: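 Viability of tumor cells grown as complex spheroids with endothelial and stromal cells, exposed to drug combinations. Top concentration at or near clinical Cmax (else 10 microM), diluted in half-log increments.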
# [1] = second compound 0.0316 µM, first compound 0.0316 µM
# [2] = second compound 0.0316 µM, first compound 0.1 µM
# [3] = second compound 0.0316 µM, first compound 0.316 µM
# [4] = second compound 0.0316 µM, first compound 1 µM
# [5] = second compound 0.0316 µM, first compound 3.16 µM
# [6] = second compound 0.0316 µM, first compound 10 µM
# [7] = second compound 0.1 µM, first compound 0.0316 µM
# [8] = second compound 0.1 µM, first compound 0.1 µM
# [9] = second compound 0.1 µM, first compound 0.316 µM
# [10] = second compound 0.1 µM, first compound 1 µM
# [11] = second compound 0.1 µM, first compound 3.16 µM
# [12] = second compound 0.1 µM, first compound 10 µM
# [13] = second compound 0.316 µM, first compound 0.0316 µM
# [14] = second compound 0.316 µM, first compound 0.1 µM
# [15] = second compound 0.316 µM, first compound 0.316 µM
# [16] = second compound 0.316 µM, first compound 1 µM
# [17] = second compound 0.316 µM, first compound 3.16 µM
# [18] = second compound 0.316 µM, first compound 10 µM
# [19] = second compound 1 µM, first compound 0.0316 µM
# [20] = second compound 1 µM, first compound 0.1 µM
# [21] = second compound 1 µM, first compound 0.316 µM
# [22] = second compound 1 µM, first compound 1 µM
# [23] = second compound 1 µM, first compound 3.16 µM
# [24] = second compound 1 µM, first compound 10 µM
# [25] = second compound 3.16 µM, first compound 0.0316 µM
# [26] = second compound 3.16 µM, first compound 0.1 µM
# [27] = second compound 3.16 µM, first compound 0.316 µM
# [28] = second compound 3.16 µM, first compound 1 µM
# [29] = second compound 3.16 µM, first compound 3.16 µM
# [30] = second compound 3.16 µM, first compound 10 µM
# [31] = second compound 10 µM, first compound 0.0316 µM
# [32] = second compound 10 µM, first compound 0.1 µM
# [33] = second compound 10 µM, first compound 0.316 µM
# [34] = second compound 10 µM, first compound 1 µM
# [35] = second compound 10 µM, first compound 3.16 µM
# [36] = second compound 10 µM, first compound 10 µM
# 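Throughout, for viability, T/C: 100% = DMSO vehicle control viability.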
structure (smiles),measurement,setting,value
O=C(c1cc(Cc2n[nH]c(=O)c3ccccc23)ccc1F)N1CCN(C(=O)C2CC2)CC1 + Cc1cnc(CNC(=O)c2c(=O)c3ccc(N4CCCN(C)CC4)nc3n3c2sc2ccccc23)cn1,IC50,second compound 0.0316 µM,> 10 µM
same,IC50,second compound 0.1 µM,5.01 µM
same,IC50,second compound 0.316 µM,> 10 µM
same,IC50,second compound 1 µM,< 0.0316 µM
same,IC50,second compound 3.16 µM,< 0.0316 µM
same,IC50,second compound 10 µM,< 0.0316 µM
same,"viability, T/C",[1],99.9%
same,"viability, T/C",[2],78.8%
same,"viability, T/C",[3],83.2%
same,"viability, T/C",[4],83.6%
same,"viability, T/C",[5],60.9%
same,"viability, T/C",[6],53%
same,"viability, T/C",[7],80.7%
same,"viability, T/C",[8],62.8%
same,"viability, T/C",[9],62.7%
same,"viability, T/C",[10],60.7%
same,"viability, T/C",[11],53%
same,"viability, T/C",[12],45.9%
same,"viability, T/C",[13],64.6%
same,"viability, T/C",[14],56.8%
same,"viability, T/C",[15],64.6%
same,"viability, T/C",[16],62.9%
same,"viability, T/C",[17],50.8%
same,"viability, T/C",[18],48.4%
same,"viability, T/C",[19],46.3%
same,"viability, T/C",[20],48.4%
same,"viability, T/C",[21],43.5%
same,"viability, T/C",[22],47.9%
same,"viability, T/C",[23],50%
same,"viability, T/C",[24],49%
same,"viability, T/C",[25],44.2%
same,"viability, T/C",[26],39.2%
same,"viability, T/C",[27],38.3%
same,"viability, T/C",[28],38.2%
same,"viability, T/C",[29],43.5%
same,"viability, T/C",[30],38.9%
same,"viability, T/C",[31],33.1%
same,"viability, T/C",[32],42.3%
same,"viability, T/C",[33],34.7%
same,"viability, T/C",[34],43.8%
same,"viability, T/C",[35],49.5%
same,"viability, T/C",[36],38.9%
CC1COCCN1c1cc(C2(S(C)(=N)=O)CC2)nc(-c2ccnc3[nH]ccc23)n1 (stereo unspecified) + Cc1[nH]c2ccc(F)cc2c1-c1nc2c3cccnc3c3ncccc3c2[nH]1,IC50,second compound 0.0316 µM,0.791 µM
same,IC50,second compound 0.1 µM,0.839 µM
same,IC50,second compound 0.316 µM,1.21 µM
same,IC50,second compound 1 µM,1.6 µM
same,IC50,second compound 3.16 µM,1.14 µM
same,IC50,second compound 10 µM,1.21 µM
same,"viability, T/C",[1],109%
same,"viability, T/C",[2],104%
same,"viability, T/C",[3],105%
same,"viability, T/C",[4],35.6%
same,"viability, T/C",[5],11.1%
same,"viability, T/C",[6],10.7%
same,"viability, T/C",[7],109%
same,"viability, T/C",[8],88.3%
same,"viability, T/C",[9],87.7%
same,"viability, T/C",[10],42.6%
same,"viability, T/C",[11],13.2%
same,"viability, T/C",[12],4.44%
same,"viability, T/C",[13],87.7%
same,"viability, T/C",[14],89.4%
same,"viability, T/C",[15],117%
same,"viability, T/C",[16],58.1%
same,"viability, T/C",[17],10.9%
same,"viability, T/C",[18],8.17%
same,"viability, T/C",[19],91.1%
same,"viability, T/C",[20],85.8%
same,"viability, T/C",[21],101%
same,"viability, T/C",[22],74.2%
same,"viability, T/C",[23],15%
same,"viability, T/C",[24],8.18%
same,"viability, T/C",[25],102%
same,"viability, T/C",[26],92.4%
same,"viability, T/C",[27],97.5%
same,"viability, T/C",[28],53.5%
same,"viability, T/C",[29],16.3%
same,"viability, T/C",[30],7.22%
same,"viability, T/C",[31],90.1%
same,"viability, T/C",[32],98.2%
same,"viability, T/C",[33],96.9%
same,"viability, T/C",[34],57.2%
same,"viability, T/C",[35],12.8%
same,"viability, T/C",[36],6.82%
CCCS(=O)(=O)Nc1ccc(F)c(C(=O)c2c[nH]c3ncc(-c4ccc(Cl)cc4)cc23)c1F + Cc1[nH]c2ccc(F)cc2c1-c1nc2c3cccnc3c3ncccc3c2[nH]1,IC50,second compound 0.0316 µM,6.01 µM
same,IC50,second compound 0.1 µM,6.44 µM
same,IC50,second compound 0.316 µM,5.92 µM
same,IC50,second compound 1 µM,6.94 µM
same,IC50,second compound 3.16 µM,5.65 µM
same,IC50,second compound 10 µM,5.28 µM
same,"viability, T/C",[1],109%
same,"viability, T/C",[2],105%
same,"viability, T/C",[3],99%
same,"viability, T/C",[4],91%
same,"viability, T/C",[5],86%
same,"viability, T/C",[6],24.1%
same,"viability, T/C",[7],111%
same,"viability, T/C",[8],107%
same,"viability, T/C",[9],101%
same,"viability, T/C",[10],103%
same,"viability, T/C",[11],98.5%
same,"viability, T/C",[12],20%
same,"viability, T/C",[13],111%
same,"viability, T/C",[14],107%
same,"viability, T/C",[15],104%
same,"viability, T/C",[16],119%
same,"viability, T/C",[17],82.7%
same,"viability, T/C",[18],22.7%
same,"viability, T/C",[19],89.6%
same,"viability, T/C",[20],107%
same,"viability, T/C",[21],108%
same,"viability, T/C",[22],115%
same,"viability, T/C",[23],103%
same,"viability, T/C",[24],25.3%
same,"viability, T/C",[25],110%
same,"viability, T/C",[26],113%
same,"viability, T/C",[27],97.9%
same,"viability, T/C",[28],95%
same,"viability, T/C",[29],89.8%
same,"viability, T/C",[30],13.7%
same,"viability, T/C",[31],90.2%
same,"viability, T/C",[32],95.9%
same,"viability, T/C",[33],103%
same,"viability, T/C",[34],98.4%
same,"viability, T/C",[35],82%
same,"viability, T/C",[36],9.98%
